Reference: US20250283050A1, “METHOD OF CANCER TREATMENT” (priority 2021, published 2025)

Assays:
[1] = tested on: colorectal cancers (CRC) tumor cells; assay: en bloc CRC culture: tumor cell death by PI-staining and FACS; assay type: cell-based, human
Description: (§1) To this end, en bloc colorectal cancers (CRC) or control non-tumor colon mucosal tissues from the same patients were incubated in RPMI based media and treated with DOX for 3 days. The effects of the treatment on tumor or normal cells were then determined by PI-staining and FACS analysis.
(§2) To this end, en bloc CRC tumor or control colon mucosal tissues were treated with DOX at low non-cytotoxic dosage and then co-cultured with TAMs transfected with Hom-1 or control GFP. After 5 days of co-culturing, the effects of the treatment on the survival of tumor or control normal epithelial cells were determined by PI staining and FACS analysis.
(§3) Tumor tissue were washed with 1×PBS buffer plus antibiotics and then cut into 0.5 cm pieces. Tissues were cultured in 2 mL of RPMI 1640 medium, supplemented with 2-10% FBS (Sigma) and 1% antibiotic-antimycotic solution (Gibco) in 24-well plate (Corning). The cultures were incubated at a 37° C., 5% CO2 incubator. […] To evaluate the effect of chemotherapeutic agents, chemo-reagents at indicated concentration or PBS was used instead of the anti-PD-1 antibody. For en bloc tissue and macrophage co-culture assay, 0.25×10^6 GFP-Hom-1 or control GFP transfected autologous macrophages of the same patient were added to the en bloc tissue culture wells. After gently shaking, the plate was incubated at 37° C., 5% CO2 for 3-5 days. The en bloc tissues were then subjected to single 1 cell isolation and analysis as described.
Single cell suspensions generated from en bloc tissue culture were washed with FACS staining solution (PBS plus 2% FBS), fixed and permeabilized (Invitrogen) and then stained with Ber-EP4 antibodies for normal epithelial cells and CK7, CK19 and CK20 for cancer cells for 30 minutes on ice. After washes with FACS staining solution, cells were stained with FITC-conjugated secondary antibodies for 30 minutes on ice. The cells were then washed with FACS staining solution and fixed in 2% paraformaldehyde in PBS for 30 min or overnight. The cells were washed and resuspended in 200 μL of FACS staining solution and 5 μL of PI staining solution (eBioscience/Fisher Scientific) were added in the solution for 15 minutes. Cell viability were then analyzed with a flow cytometry.

[2] = tested on: normal epithelial cells of colon mucosal tissues; assay: en bloc control colon mucosal tissue culture: normal epithelial cell death by PI-staining and FACS; assay type: cell-based, human; details: DOX 3 days
Description: as §1, §2
Tumor tissue were washed with 1×PBS buffer plus antibiotics and then cut into 0.5 cm pieces. Tissues were cultured in 2 mL of RPMI 1640 medium, supplemented with 2-10% FBS (Sigma) and 1% antibiotic-antimycotic solution (Gibco) in 24-well plate (Corning). The cultures were incubated at a 37° C., 5% CO2 incubator. […]
Single cell suspensions generated from en bloc tissue culture were washed with FACS staining solution (PBS plus 2% FBS), fixed and permeabilized (Invitrogen) and then stained with Ber-EP4 antibodies for normal epithelial cells and CK7, CK19 and CK20 for cancer cells for 30 minutes on ice. […] Cell viability were then analyzed with a flow cytometry.

[3] = tested on: Hom-1 expression in TAMs; assay: DOX induction of Hom-1 expression; assay type: cell-based, human
Description: Total RNA was isolated by the TRIzol reagent (Life Technologies) and RNA amounts were measured by NanoDrop 2000 (Thermo Scientific). Equal amount of RNA was used for first-strand cDNA synthesis with SuperScript III First-Strand Synthesis System (Life Technologies) according to the manufacturer's protocol. The AccuPrime Taq DNA polymerase system (Life Technologies) was used to amplify Hom-1 cDNA with conventional PCR. Quantitative measurements of Hom-1 and other cDNA were carried out with SYBR Green, using a Mastercycler ep Gradient S (Eppendorf). GAPDH was used as a house keeping gene to normalize mRNA expression. Relative expression profiles of mRNAs were calculated using the comparative Ct method (DDCT method).
as §3, with “After gently shaking, the plate was incubated at 37° C., 5% CO2 for 3-5 days. The en bloc tissues were then subjected to single 1 cell isolation and analysis as described.” left out

[4] = tested on: TAMs and TIL in en bloc CRC; assay: en bloc CRC culture: DOX effects on TAM plasticity and TIL differentiation; assay type: cell-based, human
Excerpt: As DOX induces Hom-1 expression in TAMs in en bloc CRC culture (data not shown), this example illustrates the involvement of Hom-1 in mediating therapeutic effects of DOX.
Consistent with a key regulatory role of Hom-1 in mediating DOX effects on TAM plasticity and the immune landscape of TME, it was shown that knockdown of Hom-1 expression in TAMs attenuated DOX effects on the expression of M1 and M2 markers and inhibited DOX-induced secretion of pro-inflammatory cytokines (data not shown).
as §3

[5] = tested on: NFκB; assay: NF-κB activation assay in monocytes; assay type: cell-based; details: primary human monocytes; 24 hour
Description: To determine whether NFκB plays a role in DOX activation of Hom-1 expression in monocytes, the effects of DOX on NFκB expression in primary monocytes were determined.
Human monocytes were treated with DOX at indicated concentration or PBS control. After 24 hour of treatment, the nuclear extracts were prepared using a nuclear extract kit (Active Motif, Cat. 40010). The DNA-binding activity of NF-κB p65 was determined using the TransAm assays (Active Motif, Cat. 40097) according to the manufacturer's instructions. Briefly, 2.5 μg nuclear extracts of each sample were incubated with immobilized NF-κB-specific oligonucleotides for 1 hr. The p65 protein bound to DNA was then visualized by incubation with p65-specific antibody, HRP-conjugated secondary antibody and developing solution and measured with a microplate reader with the absorbance at 450 nm.

[6] = tested on: NFκB binding to Hom-1 promoter; assay: ChIP assay of NFκB at Hom-1 promoter; assay type: cell-based; details: human monocytes, 1 μM DOX, 24 hours
Description: Human monocytes were treated with 1 μM DOX or PBS control for 24 hours and harvested for ChIP assay. The ChIP procedure was performed with a kit from Upstate biotechnology following the manufacturer's instructions. The NFκB p65 antibody (Cell Signaling Technology, Cat# 8242) was used for the immunoprecipitation. The Rabbit IgG antibody was served as a negative control. The Hom-1 promotor region containing a putative NFκB binding site was amplified with specific primers 5′-[…]-3′ and 5′-[…]-3′. All PCR products were separated on 1% agarose gel and visualized by ethidium bromide staining.

[7] = tested on: primary human CRC; assay: NSG-PDX model of primary human CRC; assay type: in vivo; details: low dosage DOX 1.5 mg/kg tail-vein, alone
Description: To this end, NSG-PDX models of primary human CRC were established according to established methods. One week post-implantation of primary CRC tumors, the mice were tail-vein injected with a low dosage of Hom-1-TAMs. Three days later, low dosage DOX at 1.5 mg/kg were given through tail-vein injection and the DOX injection were repeated after two weeks.
Animal models of primary human colon cancers were developed previously. Briefly, 8-week-old NOD. Cg-Prkdc^scid Il2rg^tm1Wjl/SzJ mice (commonly known as NOD scid gamma, or NSG mice) were purchased from the Jackson Laboratory and maintained under specific pathogen-free conditions. Tumors were cut into around 0.5 cm pieces and then surgically implanted into subcutaneous space in flank of NSG mice. After one week of implantation, 0.25×10^6 TAMs transfected with GFP-Hom-1 or control GFP were injected into the mice through tail vain. After three days, 1.5 mg/Kg of DOX or PBS control were tail-vain injected and then repeated after two weeks. The tumor growth was monitored twice weekly and measured by a caliper for 6 weeks. Tumor volumes were calculated according to the formula ½ (length×width^2).

[8] = tested on: PDAC; assay: en bloc tumor culture with chemotherapeutic agent and Hom-1-TAMs: PDAC; assay type: cell-based; details: agent plus Hom-1-TAMs
Description: (§4) Besides CRC, Hom-1-TAMs reverse immune polarity of PDAC and NSCLC TME (data not shown). The effects of Hom-1-TAM on tumoricidal effects of DOX were further explored on other tumor types, such as PDAC, NSLC, esophageal cancer and stomach cancers.
(§5) Additional chemo-reagents used in this study are listed below.
as §3

[9] = tested on: non-small cell lung cancer (NSCLC); assay: en bloc tumor culture with chemotherapeutic agent and Hom-1-TAMs: NSCLC; assay type: cell-based; details: agent plus Hom-1-TAMs
Description: as §4, §5, §3

[10] = tested on: esophageal cancer; assay: en bloc tumor culture with chemotherapeutic agent and Hom-1-TAMs: esophageal cancer; assay type: cell-based; details: agent plus Hom-1-TAMs
Description: as §4, §5, §3

[11] = tested on: stomach cancer; assay: en bloc tumor culture with chemotherapeutic agent and Hom-1-TAMs: stomach cancer; assay type: cell-based; details: agent plus Hom-1-TAMs
Description: as §4, §5, §3

[12] = en bloc CRC culture, agent alone, dose range

Row | SMILES | cytocidal effects on tumor cells [1, 12] | cytocidal effects on tumor cells ([1]; en bloc CRC, DOX alone at non-cytotoxic concentration, 5 days) | cytotoxic effects on normal epithelial cells [2] | Hom-1 expression ([3]; cancer cells and macrophages) | TAM Hom-1 expression ([3]; en bloc CRC culture) | CD4 T cell differentiation into Treg cells [4] | CD8 T cell activation [4] | TAM phenotype (M1/M2 markers and cytokines) [4] | NFκB expression [5] | interaction of NFκB with Hom-1 promoter [6] | inhibition of CRC tumorigenesis [7] | tumoricidal effects promoted by Hom-1-TAMs [8] | tumoricidal effects promoted by Hom-1-TAMs [9] | tumoricidal effects promoted by Hom-1-TAMs [10] | tumoricidal effects promoted by Hom-1-TAMs [11] | tumoricidal effects promoted by Hom-1-TAMs ([1]; en bloc CRC culture, agent plus Hom-1-TAMs)
1 | COc1cccc2c1C(=O)c1c(O)c3c(c(O)c1C2=O)C[C@@](O)(C(=O)CO)C[C@@H]3O[C@H]1C[C@H](N)[C@H](O)[C@H](C)O1 [DOX, Doxorubicin] | dosage-dependent cytocidal effects on tumor cells | little cytocidal effects on tumor cells | less cytotoxic effects on normal epithelial cells | potent inducer of Hom-1 expression both in cancer cells and in macrophages | induced TAM Hom-1 expression in the en bloc CRC culture in a dosage dependent manner | reduced CD4 T cell differentiation into Treg cells | increased CD8 T cell activation | shifted the population of TAMs from M2-like phenotype to M1-like phenotype | induces NFκB expression in primary human monocytes in a dosage dependent manner | promoted the interaction of NFκB with Hom-1 promoter | small discernable inhibition on CRC tumorigenesis | promotes tumoricidal function | promotes tumoricidal function | promotes tumoricidal function | promotes tumoricidal function | –
2 | Nc1ccn([C@@H]2O[C@H](CO)[C@@H](O)C2(F)F)c(=O)n1 [Gemcitabine] | – | – | – | – | – | – | – | – | – | – | – | promoted | – | – | – | –
3 | O=c1[nH]cc(F)c(=O)[nH]1 [5-FU] | dosage-dependent cytocidal effects on tumor cells | – | – | – | – | – | – | – | – | – | – | – | – | – | – | promoted
